Tests used:
Type in all cases: cell-based
TLR7 [1] = target: T1, TLR7 (Homo sapiens, UniProt Q9NYK1); test: HEK293 TLR7/NFKb reporter cell assay with R848 agonist; parameters: expressed in transfected cells; host or cells: HEK293
T1 sequence (Q9NYK1 27-1049): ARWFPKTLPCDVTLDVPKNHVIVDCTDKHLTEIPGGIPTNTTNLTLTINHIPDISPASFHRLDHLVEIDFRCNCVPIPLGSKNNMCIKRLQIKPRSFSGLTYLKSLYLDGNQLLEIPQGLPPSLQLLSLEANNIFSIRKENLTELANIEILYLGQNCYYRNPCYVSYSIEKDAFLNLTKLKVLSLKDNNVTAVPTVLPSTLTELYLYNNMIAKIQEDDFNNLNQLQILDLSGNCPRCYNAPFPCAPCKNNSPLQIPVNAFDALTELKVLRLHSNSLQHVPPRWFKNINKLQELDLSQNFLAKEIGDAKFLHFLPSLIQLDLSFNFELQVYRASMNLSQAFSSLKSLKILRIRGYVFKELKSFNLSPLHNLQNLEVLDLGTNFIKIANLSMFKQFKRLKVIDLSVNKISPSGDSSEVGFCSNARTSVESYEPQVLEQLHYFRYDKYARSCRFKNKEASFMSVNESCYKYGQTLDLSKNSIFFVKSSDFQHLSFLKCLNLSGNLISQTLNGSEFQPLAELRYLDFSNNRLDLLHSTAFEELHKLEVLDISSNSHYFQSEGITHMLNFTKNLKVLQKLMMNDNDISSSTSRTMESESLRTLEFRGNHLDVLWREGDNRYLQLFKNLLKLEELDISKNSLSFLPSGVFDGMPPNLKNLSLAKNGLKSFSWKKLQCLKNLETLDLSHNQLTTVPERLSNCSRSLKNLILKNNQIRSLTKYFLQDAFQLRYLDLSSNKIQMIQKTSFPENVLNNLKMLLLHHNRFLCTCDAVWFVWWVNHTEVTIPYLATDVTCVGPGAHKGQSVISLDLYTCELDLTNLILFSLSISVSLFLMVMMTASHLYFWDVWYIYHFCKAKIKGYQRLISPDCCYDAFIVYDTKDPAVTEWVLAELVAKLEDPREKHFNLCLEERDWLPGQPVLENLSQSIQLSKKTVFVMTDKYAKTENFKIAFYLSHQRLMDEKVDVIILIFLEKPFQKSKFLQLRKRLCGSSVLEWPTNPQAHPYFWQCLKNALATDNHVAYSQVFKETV
Description: Into 384 CulturePlates (Corning 3707) was placed 5000 c/w of HEK293 TLR7/NFKb reporter cells in 30 µL DMEM without phenol red and 10% i.a. FCS and 2 mM L-glutamine. The cells were incubated for 24 h at 37° C., 10% carbon dioxide and 90% relative humidity. 3 µL of controls, standards, and compounds were dispensed to wells, incubated for 30 min then 3 µL of R848 agonist (Resiquimod) in 20 mM HEPES buffer was added. After incubation for 5 hours, it was allowed to stand at room temperature for 15 min. 10 µL of Steady-Glo substrate reagent was added and assay plates were shaken for 5 min at 1500 rpm. The assay plate was allowed to sit for 30 min at room temperature and then read on an EnVision plate reader.

TLR8 = target: T2, TLR8 (Homo sapiens, UniProt Q9NR97); test: Human whole blood assay, TLR8-specific agonist stimulation, IL-6 by AlphaLISA; settings: TLR8-specific agonist 0.5 µM, IL-6 readout, read-out: IC50 TLR8 (IL6 READOUT) HUMAN WHOLE BLOOD (N=2)
T2 construct: Human whole blood from healthy donors was drawn into EDTA Vacutainer tubes; endogenous in cells; host or cells: human whole blood (healthy donors)
T2 sequence (Q9NR97 27-1041): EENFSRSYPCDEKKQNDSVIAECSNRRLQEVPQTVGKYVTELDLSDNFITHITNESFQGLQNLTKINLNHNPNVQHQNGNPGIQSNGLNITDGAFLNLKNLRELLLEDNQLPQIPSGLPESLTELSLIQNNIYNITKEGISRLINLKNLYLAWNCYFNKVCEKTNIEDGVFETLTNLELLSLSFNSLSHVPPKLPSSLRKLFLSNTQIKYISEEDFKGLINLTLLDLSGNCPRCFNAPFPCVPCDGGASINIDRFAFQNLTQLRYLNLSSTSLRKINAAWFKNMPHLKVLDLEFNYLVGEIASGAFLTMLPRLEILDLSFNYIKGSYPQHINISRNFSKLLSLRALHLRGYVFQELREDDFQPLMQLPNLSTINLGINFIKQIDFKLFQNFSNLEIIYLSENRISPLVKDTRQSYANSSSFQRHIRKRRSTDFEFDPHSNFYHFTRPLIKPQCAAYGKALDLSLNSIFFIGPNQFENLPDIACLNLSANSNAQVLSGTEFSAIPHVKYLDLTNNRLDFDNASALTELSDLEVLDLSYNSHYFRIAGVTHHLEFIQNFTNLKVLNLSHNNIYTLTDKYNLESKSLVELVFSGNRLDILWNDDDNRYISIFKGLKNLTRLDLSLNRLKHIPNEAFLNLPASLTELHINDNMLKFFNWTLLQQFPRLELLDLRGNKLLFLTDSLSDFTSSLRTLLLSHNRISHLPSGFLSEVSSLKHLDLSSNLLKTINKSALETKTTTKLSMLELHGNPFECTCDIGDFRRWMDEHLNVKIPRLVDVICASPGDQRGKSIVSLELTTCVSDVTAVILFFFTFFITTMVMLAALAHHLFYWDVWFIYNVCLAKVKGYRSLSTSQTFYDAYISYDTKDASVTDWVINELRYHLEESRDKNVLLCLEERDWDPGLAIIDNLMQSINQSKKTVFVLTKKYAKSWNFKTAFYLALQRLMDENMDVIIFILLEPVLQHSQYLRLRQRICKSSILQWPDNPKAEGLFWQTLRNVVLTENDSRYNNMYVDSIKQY
Description: (§1) Human whole blood from healthy donors was drawn into EDTA Vacutainer tubes and the experiment started within 2 hr of draw. Four parts blood was diluted with 1 part PBS. 10 mM compounds stock solutions were serially diluted 1:3 eleven times in DMSO. Each serial dilution was further diluted by transferring 3 µl to 100 µl RPMI. For the stimulation only and no stimulation controls, 3 µl 100% DMSO was transferred to 100 µl RPMI. Then, 5 µl of each of these dilutions were transferred to 96-well tissue culture grade U-bottom plate in triplicate for each ligand and each donor. Final inhibitor concentrations were 10, 3.3, 1.1, 0.37, 0.12, 0.04, 0.014, 0.0046, 0.0015, 0.00051, 0.00017, 0.00006 µM. No inhibitor (stimulation only) controls were included in triplicate for each donor. Diluted blood was dispensed on top of inhibitor dilutions at 150 µl/well. Plates were incubated at 37° C. 5% CO2 for 30 min. For TLR7 stimulation, 10 mM stock of a TLR7-specific small molecule agonist in DMSO was diluted to 90 µM in RPMI and 5 µl were added to each inhibitor dilution for each donor. Final concentration was 3 µM. For TLR8 stimulation, 10 mM stock of a TLR8-specific small molecule agonist in DMSO was diluted to 15 µM in RPMI and 5 µl were added to each inhibitor dilution for each donor. Final concentration was 0.5 µM. No stimulation controls were included in triplicate for each donor. Plates were incubated at 37° C. 5% CO2 overnight. Next day, plasma was collected and IL-6 was measured by AlphaLISA (PerkinElmer AL223 according to manufacturer’s protocol.

TLR7 [2] = target: T1, TLR7; test: Human whole blood assay, TLR7-specific agonist stimulation, IL-6 by AlphaLISA; parameters: Human whole blood from healthy donors was drawn into EDTA Vacutainer tubes; endogenous in cells; host or cells: human whole blood (healthy donors); settings: TLR7-specific agonist 3 µM, IL-6 readout, read-out: IC50 TLR7 (IL6 READOUT) HUMAN WHOLE BLOOD (N=2)
Description: as §1

[3] = HEK293 TLR7/NFKb reporter cells, R848 agonist, read-out: IC50 TLR7 (IL6 READOUT) HEK TRANSFECTED
[4] = Example 4 results table, assay/readout not specified, read-out: Potency

## CCN(CC)Cc1cc(Nc2ccnc3cc(Cl)ccc23)ccc1O [AMODIAQUINE]
TLR7 [1]; [3]
  IC50: > 10 µM

## CCN(CC)CCCC(C)Nc1ccnc2cc(Cl)ccc12 (stereo not shown) [CHLOROQUINE, Chloroquine]
TLR8
  IC50: 53.3 µM
TLR7 [2]
  IC50: 2.28 µM

## CCN(CC)Cc1cc(Nc2ccnc3cc(Cl)ccc23)cc(CN(CC)CC)c1O [Compound 2, CYCLOQUINE]
TLR7 [1]; [4]
  IC50: < 1 µM
TLR7 [1]; [3]
  IC50: 1.39 µM

## Oc1c(CN2CCCC2)cc(Nc2ccnc3cc(Cl)ccc23)cc1CN1CCCC1 [Compound 3, BISPYROQUINE]
TLR7 [1]; [4]
  IC50: < 1 µM
TLR7 [1]; [3]
  IC50: 4.59 µM
